# Measured values taken from publication PMC7584476, “Safety and efficacy of BAY1436032 in IDH1-mutant AML: phase I study results” (Leukemia, 2020).
# System: subjects with mIDH1 advanced AML
# Assay: Phase I study: safety and tolerability (TEAE, DLT, MTD, ECG)
# Type: in vivo
# Description: This study was an open-label, nonrandomized, multicenter phase I trial. Subjects were screened at 13 hospital sites in 2 countries (USA and Germany). The study was to consist of dose-escalation followed by dose-expansion. The MTD identified in dose-escalation was to be used in the dose-expansion. If MTD was not reached in dose-escalation, a dose for the expansion would be selected based on available PK, pharmacodynamic, safety, and efficacy data. BAY1436032 was administered twice-daily (BID) in continuous 28-day cycles. In dose-escalation, up to 9 evaluable subjects could be enrolled per cohort, with a minimum of 3 dose-limiting toxicity (DLT)-free evaluable subjects required prior to escalating to the next highest dose. Bayesian dose-DLT modeling was performed to help guide dosing decisions.
# DLTs were differentially defined for nonhematopoietic versus hematopoietic toxicities. Nonhematopoietic toxicities of ≥grade 3 occurring during the first cycle of treatment were to be considered DLTs with the following exceptions: (1) Alopecia and nausea controlled by medical management; (2) Tumor lysis syndrome if successfully managed clinically and resolved within 7 days without any end-organ damage; (3) Differentiation syndrome (DS) if successfully managed clinically and resolved within 7 days without any end-organ damage; (4) Asymptomatic ≥grade 3 electrolyte abnormalities not considered clinically significant by the investigator. […] For certain toxicities such as laboratory assessments without a clear clinical correlate, a discussion between the investigator and the sponsor determined whether the adverse event (AE) should be assessed as a DLT.
# DLTs identified during the first cycle of treatment were used to guide dose-escalation decisions and to determine the MTD, and if safety issues appeared in subsequent cycles they were also to be considered. Hydroxyurea was permitted during the first cycle if white blood cell (WBC) exceeded 20 × 10^9/L and was also permitted for treatment of DS.
# Safety and tolerability were evaluated by analysis of adverse events, physical examinations, vital signs, ECOG performance status, and various laboratory assessments. For safety monitoring, subjects were scheduled for clinic visits every week for the initial three cycles of treatment, after which time visits could be reduced to every-other-week with investigator and sponsor agreement. Cardiac function was assessed with triplicate 12-lead electrocardiograms (ECG) at screening, C1-D1, C1-D2, C1-D15, D1 of every subsequent cycle, and at treatment end. […] AEs are presented by the Medical Dictionary for Regulatory Activities (MedDRA) v21.1.
compound,measurement,setting,value
C[C@H]1C[C@@H](n2c(Nc3ccc(OC(F)(F)F)cc3)nc3cc(CCC(=O)O)ccc32)CC(C)(C)C1 [BAY1436032],Related TEAE Decreased appetite Grade 1,"300 mg BID, n=7",1
same,Related TEAE Decreased appetite Grade 2,"300 mg BID, n=7",1
same,Related TEAE Diarrhea Grade 2,"300 mg BID, n=7",0
same,Related TEAE Differentiation syndrome Grade 2,"300 mg BID, n=7",0
same,Related TEAE Differentiation syndrome Grade 3,"300 mg BID, n=7",0
same,Related TEAE Dyspnea Grade 1,"300 mg BID, n=7",1
same,Related TEAE Dyspnea Grade 2,"300 mg BID, n=7",1
same,Related TEAE Fatigue Grade 1,"300 mg BID, n=7",0
same,Related TEAE Fatigue Grade 2,"300 mg BID, n=7",1
same,Related TEAE Fatigue Grade 3,"300 mg BID, n=7",0
same,Related TEAE Hypomagnesaemia Grade 1,"300 mg BID, n=7",1
same,Related TEAE Nausea Grade 1,"300 mg BID, n=7",1
same,Related TEAE Nausea Grade 2,"300 mg BID, n=7",1
same,Related TEAE Sinus tachycardia Grade 1,"300 mg BID, n=7",1
same,Related TEAE Vomiting Grade 1,"300 mg BID, n=7",2
same,TEAE Abdominal pain upper Grade 1,"300 mg BID, n=7",0
same,TEAE Abdominal pain upper Grade 2,"300 mg BID, n=7",0
same,TEAE Acute kidney injury Grade 1,"300 mg BID, n=7",1
same,TEAE Acute kidney injury Grade 2,"300 mg BID, n=7",1
same,TEAE Acute kidney injury Grade 3,"300 mg BID, n=7",0
same,TEAE Anaemia Grade 3,"300 mg BID, n=7",0
same,TEAE Anaemia Grade 4,"300 mg BID, n=7",1
same,TEAE Anxiety Grade 1,"300 mg BID, n=7",1
same,TEAE Anxiety Grade 2,"300 mg BID, n=7",0
same,TEAE Arthralgia Grade 1,"300 mg BID, n=7",0
same,TEAE Arthralgia Grade 2,"300 mg BID, n=7",0
same,TEAE Constipation Grade 1,"300 mg BID, n=7",0
same,TEAE Constipation Grade 2,"300 mg BID, n=7",1
same,TEAE Contusion Grade 1,"300 mg BID, n=7",1
same,TEAE Contusion Grade 2,"300 mg BID, n=7",0
same,TEAE Cough Grade 1,"300 mg BID, n=7",2
same,TEAE Cough Grade 2,"300 mg BID, n=7",1
same,TEAE Decreased appetite Grade 1,"300 mg BID, n=7",3
same,TEAE Decreased appetite Grade 2,"300 mg BID, n=7",1
same,TEAE Decreased appetite Grade 3,"300 mg BID, n=7",0
same,TEAE Diarrhea Grade 1,"300 mg BID, n=7",4
same,TEAE Diarrhea Grade 2,"300 mg BID, n=7",0
same,TEAE Dry skin Grade 1,"300 mg BID, n=7",2
same,TEAE Dyspnoea Grade 1,"300 mg BID, n=7",2
same,TEAE Dyspnoea Grade 2,"300 mg BID, n=7",1
same,TEAE Dyspnoea Grade 3,"300 mg BID, n=7",2
same,TEAE Epistaxis Grade 1,"300 mg BID, n=7",0
same,TEAE Epistaxis Grade 2,"300 mg BID, n=7",0
same,TEAE Epistaxis Grade 3,"300 mg BID, n=7",0
same,TEAE Fall Grade 1,"300 mg BID, n=7",0
same,TEAE Fatigue Grade 1,"300 mg BID, n=7",2
same,TEAE Fatigue Grade 2,"300 mg BID, n=7",1
same,TEAE Fatigue Grade 3,"300 mg BID, n=7",1
same,TEAE Febrile neutropenia Grade 3,"300 mg BID, n=7",2
same,TEAE General physical health deterioration Grade 3,"300 mg BID, n=7",0
same,TEAE General physical health deterioration Grade 5,"300 mg BID, n=7",0
same,TEAE Gingivitis Grade 1,"300 mg BID, n=7",2
same,TEAE Haematuria Grade 1,"300 mg BID, n=7",1
same,TEAE Haematuria Grade 2,"300 mg BID, n=7",0
same,TEAE Haematuria Grade 3,"300 mg BID, n=7",0
same,TEAE Headache Grade 1,"300 mg BID, n=7",1
same,TEAE Headache Grade 2,"300 mg BID, n=7",2
same,TEAE Headache Grade 3,"300 mg BID, n=7",0
same,TEAE Hyperkalaemia Grade 1,"300 mg BID, n=7",1
same,TEAE Hyperkalaemia Grade 4,"300 mg BID, n=7",0
same,TEAE Hypertension Grade 2,"300 mg BID, n=7",0
same,TEAE Hypertension Grade 3,"300 mg BID, n=7",0
same,TEAE Hyperuricaemia Grade 1,"300 mg BID, n=7",0
same,TEAE Hyperuricaemia Grade 3,"300 mg BID, n=7",0
same,TEAE Hypokalaemia Grade 1,"300 mg BID, n=7",2
same,TEAE Hypokalaemia Grade 2,"300 mg BID, n=7",0
same,TEAE Hypokalaemia Grade 3,"300 mg BID, n=7",1
same,TEAE Hyponatraemia Grade 1,"300 mg BID, n=7",2
same,TEAE Hyponatraemia Grade 3,"300 mg BID, n=7",0
same,TEAE Hypophosphataemia Grade 1,"300 mg BID, n=7",0
same,TEAE Hypophosphataemia Grade 2,"300 mg BID, n=7",1
same,TEAE Leukocytosis Grade 2,"300 mg BID, n=7",1
same,TEAE Leukocytosis Grade 3,"300 mg BID, n=7",1
same,TEAE Lung infection Grade 3,"300 mg BID, n=7",1
same,TEAE Lung infection Grade 5,"300 mg BID, n=7",1
same,TEAE Nausea Grade 1,"300 mg BID, n=7",1
same,TEAE Nausea Grade 2,"300 mg BID, n=7",1
same,TEAE Nausea Grade 3,"300 mg BID, n=7",0
same,TEAE Oedema peripheral Grade 1,"300 mg BID, n=7",3
same,TEAE Oedema peripheral Grade 3,"300 mg BID, n=7",1
same,TEAE Pain in extremity Grade 1,"300 mg BID, n=7",1
same,TEAE Pain in extremity Grade 2,"300 mg BID, n=7",0
same,TEAE Pneumonia Grade 1,"300 mg BID, n=7",0
same,TEAE Pneumonia Grade 2,"300 mg BID, n=7",1
same,TEAE Pneumonia Grade 3,"300 mg BID, n=7",1
same,TEAE Pneumonia fungal Grade 2,"300 mg BID, n=7",0
same,TEAE Pneumonia fungal Grade 3,"300 mg BID, n=7",0
same,TEAE Pneumonia fungal Grade 4,"300 mg BID, n=7",0
same,TEAE Productive cough Grade 1,"300 mg BID, n=7",0
same,TEAE Productive cough Grade 2,"300 mg BID, n=7",0
same,TEAE Pyrexia Grade 1,"300 mg BID, n=7",0
same,TEAE Pyrexia Grade 2,"300 mg BID, n=7",0
same,TEAE Pyrexia Grade 3,"300 mg BID, n=7",0
same,TEAE Rash Grade 1,"300 mg BID, n=7",0
same,TEAE Rash Grade 2,"300 mg BID, n=7",0
same,TEAE Sepsis Grade 4,"300 mg BID, n=7",2
same,TEAE Sepsis Grade 5,"300 mg BID, n=7",1
same,TEAE Sinus tachycardia Grade 1,"300 mg BID, n=7",2
same,TEAE Thrombocytopenia Grade 4,"300 mg BID, n=7",0
same,TEAE Vomiting Grade 1,"300 mg BID, n=7",3
same,TEAE Weight decreased Grade 1,"300 mg BID, n=7",2
same,TEAE Weight decreased Grade 2,"300 mg BID, n=7",0
same,TEAE Weight decreased Grade 3,"300 mg BID, n=7",0
same,Related TEAE Decreased appetite Grade 1,"600 mg BID, n=4",0
same,Related TEAE Decreased appetite Grade 2,"600 mg BID, n=4",0
same,Related TEAE Diarrhea Grade 2,"600 mg BID, n=4",0
same,Related TEAE Differentiation syndrome Grade 2,"600 mg BID, n=4",0
same,Related TEAE Differentiation syndrome Grade 3,"600 mg BID, n=4",0
same,Related TEAE Dyspnea Grade 1,"600 mg BID, n=4",0
same,Related TEAE Dyspnea Grade 2,"600 mg BID, n=4",0
same,Related TEAE Fatigue Grade 1,"600 mg BID, n=4",1
same,Related TEAE Fatigue Grade 2,"600 mg BID, n=4",0
same,Related TEAE Fatigue Grade 3,"600 mg BID, n=4",0
same,Related TEAE Hypomagnesaemia Grade 1,"600 mg BID, n=4",0
same,Related TEAE Nausea Grade 1,"600 mg BID, n=4",1
same,Related TEAE Nausea Grade 2,"600 mg BID, n=4",0
same,Related TEAE Sinus tachycardia Grade 1,"600 mg BID, n=4",0
same,Related TEAE Vomiting Grade 1,"600 mg BID, n=4",1
same,TEAE Abdominal pain upper Grade 1,"600 mg BID, n=4",0
same,TEAE Abdominal pain upper Grade 2,"600 mg BID, n=4",0
same,TEAE Acute kidney injury Grade 1,"600 mg BID, n=4",0
same,TEAE Acute kidney injury Grade 2,"600 mg BID, n=4",0
same,TEAE Acute kidney injury Grade 3,"600 mg BID, n=4",1
same,TEAE Anaemia Grade 3,"600 mg BID, n=4",1
same,TEAE Anaemia Grade 4,"600 mg BID, n=4",0
same,TEAE Anxiety Grade 1,"600 mg BID, n=4",0
same,TEAE Anxiety Grade 2,"600 mg BID, n=4",0
same,TEAE Arthralgia Grade 1,"600 mg BID, n=4",0
same,TEAE Arthralgia Grade 2,"600 mg BID, n=4",0
same,TEAE Constipation Grade 1,"600 mg BID, n=4",0
same,TEAE Constipation Grade 2,"600 mg BID, n=4",0
same,TEAE Contusion Grade 1,"600 mg BID, n=4",0
same,TEAE Contusion Grade 2,"600 mg BID, n=4",0
same,TEAE Cough Grade 1,"600 mg BID, n=4",1
same,TEAE Cough Grade 2,"600 mg BID, n=4",0
